Where two headings read alike, the source gives them in different places. Square brackets hold non-standard residues; d marks the D form. Peptide text beside a SMILES is read from it. * marks the point of attachment. X4 = CC(C)(C(=O)NCCN1C(=O)CSC1=O)C(=O)*; Aib = CC(C)(N)C(=O)O
How the values were obtained:
Type in all cases: cell-based
GLP-1R [1] = target: T1, GLP-1R (Homo sapiens, UniProt P43220); assay: HitHunter cAMP assay (GLP-1R); settings: cAMP; for Emax: read-out: (Emax) GLP-1R
Outline: (§1)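 Cells were resuspended in HBSS plus HEPES, IBMX (625 μM) and BSA, then dispensed with antibody at 10,000 per well. Agonists followed as 22-point twofold series, 30 min at room temperature. Antibody reagent and detection steps ran 1 h and overnight in the dark before luminescence.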

GIP-R = target: T2, GIP-R (Homo sapiens, UniProt P48546); assay: HitHunter cAMP assay (GIP-R); settings: cAMP; for Emax: read-out: (Emax) GIP-R
T2 sequence (P48546 22-466): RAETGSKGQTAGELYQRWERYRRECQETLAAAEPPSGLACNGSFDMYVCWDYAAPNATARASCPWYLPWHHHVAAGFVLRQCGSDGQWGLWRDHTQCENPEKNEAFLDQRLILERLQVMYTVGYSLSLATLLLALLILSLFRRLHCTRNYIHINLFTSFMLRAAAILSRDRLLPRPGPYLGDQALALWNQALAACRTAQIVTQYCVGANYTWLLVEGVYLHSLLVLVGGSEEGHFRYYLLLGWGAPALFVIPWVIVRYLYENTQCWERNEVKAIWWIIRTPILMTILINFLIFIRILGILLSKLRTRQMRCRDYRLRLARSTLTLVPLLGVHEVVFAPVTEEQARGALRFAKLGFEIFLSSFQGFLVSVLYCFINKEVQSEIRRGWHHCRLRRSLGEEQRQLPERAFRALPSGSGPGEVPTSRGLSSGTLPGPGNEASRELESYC
Outline: as §1

GLP-1R [2] = target: T1, GLP-1R; assay: PathHunter β-arrestin assay
Outline: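 Agonist concentration–response (22 points, 2-fold steps, duplicates) was run on cells plated the previous day in BSA-supplemented (0.2%) medium. Stimulation lasted 90 min at 37 °C, followed by a 3 h dark incubation with detection reagent at room temperature and a luminescence read.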

[3] = Table 3A, read-out: EC50 GLP-1R/nM
[4] = Table 3A, read-out: EC50 GIP-R/nM
[5] = PathHunter β-arrestin assay, read-out: β-arrestin activity EC50
[6] = Table 3, read-out: EC50 GLP-1R/nM
[7] = Table 3, read-out: EC50 GIP-R/nM

T1 sequence (P43220 24-463): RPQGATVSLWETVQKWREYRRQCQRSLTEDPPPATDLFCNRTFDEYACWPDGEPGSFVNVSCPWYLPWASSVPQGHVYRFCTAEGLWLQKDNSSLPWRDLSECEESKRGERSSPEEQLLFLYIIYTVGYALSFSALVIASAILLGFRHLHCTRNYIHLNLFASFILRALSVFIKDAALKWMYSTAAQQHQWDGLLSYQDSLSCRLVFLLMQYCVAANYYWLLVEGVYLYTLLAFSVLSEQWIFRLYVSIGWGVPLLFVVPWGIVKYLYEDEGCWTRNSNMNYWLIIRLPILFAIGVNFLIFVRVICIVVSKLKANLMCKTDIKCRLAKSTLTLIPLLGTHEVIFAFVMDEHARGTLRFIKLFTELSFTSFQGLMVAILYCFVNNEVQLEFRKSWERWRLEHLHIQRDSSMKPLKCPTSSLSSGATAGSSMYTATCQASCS

Compound | EC50 (GLP-1R [1]; EC50 GLP-1R/nM, Table 3A) [nM] | Emax (GLP-1R [1]; Table 3A) [%] | EC50 (GIP-R; EC50 GIP-R/nM, Table 3A) [nM] | Emax (GIP-R; Table 3A) [%] | EC50 (GLP-1R [2]) [µM] | EC50 (GLP-1R [1]; EC50 GLP-1R/nM, Table 3) [nM] | Emax (GLP-1R [1]; Table 3) [%] | EC50 (GIP-R; EC50 GIP-R/nM, Table 3) [nM] | Emax at 1 µM (GIP-R; read-out: (Emax) GIP-R at 1 μM, Table 3) [%] | Emax at 1 µM (GIP-R; read-out: (Emax) GIP-R at 1 μM, Table 3A) [%] | EC50 (GLP-1R [1]; [3]) [nM] | EC50 (GIP-R; [4]) [nM] | EC50 (GLP-1R [2]; [5]) [µM] | EC50 (GLP-1R [1]; [6]) [nM] | Emax (GIP-R; Table 3) [%] | EC50 (GIP-R; [7]) [nM]
CCCCCCCCCCCCCCCC(=O)N[C@@H](CCC(=O)NCCCC[C@H](NC(=O)[C@H](CO)NC(=O)[C@@H]1CCCN1C(=O)[C@@H]1CCCN1C(=O)[C@@H]1CCCN1C(=O)[C@H](C)NC(=O)CNC(=O)[C@H](CO)NC(=O)[C@H](CO)NC(=O)[C@@H]1CCCN1C(=O)CNC(=O)CNC(=O)[C@H](C)NC(=O)[C@H](CC(C)C)NC(=O)[C@H](CC(C)C)NC(=O)[C@H](Cc1c[nH]c2ccccc12)NC(=O)[C@H](CC(N)=O)NC(=O)[C@@H](NC(=O)[C@H](Cc1ccccc1)NC(=O)[C@H](CCC(=O)O)NC(=O)C(C)(C)NC(=O)[C@H](C)NC(=O)[C@H](C)NC(=O)[C@H](CCC(N)=O)NC(=O)[C@H](CCCCN)NC(=O)[C@H](CC(=O)O)NC(=O)[C@H](CC(C)C)NC(=O)[C@H](Cc1ccc(O)cc1)NC(=O)[C@@H](NC(=O)[C@H](CO)NC(=O)[C@H](Cc1ccc(O)cc1)NC(=O)[C@H](CC(=O)O)NC(=O)[C@H](CO)NC(=O)[C@@H](NC(=O)[C@H](Cc1ccccc1)NC(=O)[C@@H](NC(=O)CNC(=O)[C@H](CCC(=O)O)NC(=O)CSCC(=O)NCCn1cccc(C)c1=O)[C@@H](C)O)[C@@H](C)O)[C@@H](C)CC)C(C)C)C(N)=O)C(=O)O [Compound 232] | 0.1 to 1 | 95 | 1 to 10 | 78 | > 1 |  |  |  |  |  |  |  |  |  |  | 
CC[C@H](C)[C@H](NC(=O)[C@H](CO)NC(=O)[C@H](Cc1ccc(O)cc1)NC(=O)[C@H](CC(=O)O)NC(=O)[C@H](CO)NC(=O)[C@@H](NC(=O)[C@H](Cc1ccccc1)NC(=O)[C@@H](NC(=O)CNC(=O)[C@H](CCC(=O)O)NC(=O)CSCC(=O)NCCn1c(C)cc(C)cc1=O)[C@@H](C)O)[C@@H](C)O)C(=O)N[C@@H](Cc1ccc(O)cc1)C(=O)N[C@@H](CC(C)C)C(=O)N[C@@H](CC(=O)O)C(=O)N[C@@H](CCCCN)C(=O)N[C@@H](CCC(N)=O)C(=O)N[C@@H](C)C(=O)N[C@@H](C)C(=O)NC(C)(C)C(=O)N[C@@H](CCC(=O)O)C(=O)N[C@@H](Cc1ccccc1)C(=O)N[C@H](C(=O)N[C@@H](CC(N)=O)C(=O)N[C@@H](Cc1c[nH]c2ccccc12)C(=O)N[C@@H](CC(C)C)C(=O)N[C@@H](CC(C)C)C(=O)N[C@@H](C)C(=O)NCC(=O)NCC(=O)N1CCC[C@H]1C(=O)N[C@@H](CO)C(=O)N[C@@H](CO)C(=O)NCC(=O)N[C@@H](C)C(=O)N1CCC[C@H]1C(=O)N1CCC[C@H]1C(=O)N1CCC[C@H]1C(=O)N[C@@H](CO)C(=O)N[C@@H](CCCCN)C(N)=O)C(C)C [Compound 111] | 10 to 100 | 94 | 100 to 1000 |  | > 1 | 10 to 100 | 94 | 10 to 100 | 12 | 12 |  |  |  |  |  | 
CCCCCCCCCCCCCCCC(=O)N[C@@H](CCC(=O)NCCCC[C@H](NC(=O)[C@H](CO)NC(=O)[C@@H]1CCCN1C(=O)[C@@H]1CCCN1C(=O)[C@@H]1CCCN1C(=O)[C@H](C)NC(=O)CNC(=O)[C@H](CO)NC(=O)[C@H](CO)NC(=O)[C@@H]1CCCN1C(=O)CNC(=O)CNC(=O)[C@H](C)NC(=O)[C@H](CC(C)C)NC(=O)[C@H](CC(C)C)NC(=O)[C@H](Cc1c[nH]c2ccccc12)NC(=O)[C@H](CC(N)=O)NC(=O)[C@@H](NC(=O)[C@H](Cc1ccccc1)NC(=O)[C@H](CCC(=O)O)NC(=O)C(C)(C)NC(=O)[C@H](C)NC(=O)[C@H](C)NC(=O)[C@H](CCC(N)=O)NC(=O)[C@H](CCCCN)NC(=O)[C@H](CC(=O)O)NC(=O)[C@H](CC(C)C)NC(=O)[C@H](Cc1ccc(O)cc1)NC(=O)[C@@H](NC(=O)[C@H](CO)NC(=O)[C@H](Cc1ccc(O)cc1)NC(=O)[C@H](CC(=O)O)NC(=O)[C@H](CO)NC(=O)[C@@H](NC(=O)[C@H](Cc1ccccc1)NC(=O)[C@@H](NC(=O)CNC(=O)[C@H](CCC(=O)O)NC(=O)[C@H](C)NC(=O)CCN1CCCCC1=O)[C@@H](C)O)[C@@H](C)O)[C@@H](C)CC)C(C)C)C(N)=O)C(=O)O [Compound 212] |  | 90 |  | 50 |  |  |  |  |  |  | < 0.1 | 1 to 10 | 0.01 to 1 |  |  | 
CC[C@H](C)[C@H](NC(=O)[C@H](CO)NC(=O)[C@H](Cc1ccc(O)cc1)NC(=O)[C@H](CC(=O)O)NC(=O)[C@H](CO)NC(=O)[C@@H](NC(=O)[C@H](Cc1ccccc1)NC(=O)[C@@H](NC(=O)CNC(=O)[C@H](CCC(=O)O)NC(=O)C(C)(C)C(=O)NCCN1C(=O)CSC1=O)[C@@H](C)O)[C@@H](C)O)C(=O)N[C@@H](Cc1ccc(O)cc1)C(=O)N[C@@H](CC(C)C)C(=O)N[C@@H](CC(=O)O)C(=O)N[C@@H](CCCCN)C(=O)N[C@@H](CCC(N)=O)C(=O)N[C@@H](C)C(=O)N[C@H](C(=O)NC(C)(C)C(=O)N[C@@H](CCC(=O)O)C(=O)N[C@@H](Cc1ccccc1)C(=O)N[C@H](C(=O)N[C@@H](CC(N)=O)C(=O)N[C@@H](Cc1c[nH]c2ccccc12)C(=O)N[C@@H](CC(C)C)C(=O)N[C@@H](CC(C)C)C(=O)N[C@@H](C)C(=O)NCC(=O)NCC(=O)N1CCC[C@H]1C(=O)N[C@@H](CO)C(=O)N[C@@H](CO)C(=O)NCC(=O)N[C@@H](C)C(=O)N1CCC[C@H]1C(=O)N1CCC[C@H]1C(=O)N1CCC[C@H]1C(=O)N[C@@H](CO)C(=O)N[C@@H](CCCCN)C(N)=O)[C@@H](C)CC)C(C)C [Compound 132] (X4-EGTFTSDYSIYLDKQAV[Aib]EFINWLLAGGPSSGAPPPSK-NH2) |  | 103 to 114 |  | 61 to 64 |  |  | 103 to 114 |  |  |  | < 0.1 | 1 to 10 | 0.01 to 1 | < 0.1 | 61 to 64 | 1 to 10
CCCCCCCCCCCCCCCC(=O)N[C@@H](CCC(=O)NCCCC[C@H](NC(=O)[C@H](CO)NC(=O)[C@@H]1CCCN1C(=O)[C@@H]1CCCN1C(=O)[C@@H]1CCCN1C(=O)[C@H](C)NC(=O)CNC(=O)[C@H](CO)NC(=O)[C@H](CO)NC(=O)[C@@H]1CCCN1C(=O)CNC(=O)CNC(=O)[C@H](C)NC(=O)[C@H](CC(C)C)NC(=O)[C@H](CC(C)C)NC(=O)[C@H](Cc1c[nH]c2ccccc12)NC(=O)[C@H](CC(N)=O)NC(=O)[C@@H](NC(=O)[C@H](Cc1ccccc1)NC(=O)[C@H](CCC(=O)O)NC(=O)C(C)(C)NC(=O)[C@H](C)NC(=O)[C@H](C)NC(=O)[C@H](CCC(N)=O)NC(=O)[C@H](CCCCN)NC(=O)[C@H](CC(=O)O)NC(=O)[C@H](CC(C)C)NC(=O)[C@H](Cc1ccc(O)cc1)NC(=O)[C@@H](NC(=O)[C@H](CO)NC(=O)[C@H](Cc1ccc(O)cc1)NC(=O)[C@H](CC(=O)O)NC(=O)[C@H](CO)NC(=O)[C@@H](NC(=O)[C@H](Cc1ccccc1)NC(=O)[C@@H](NC(=O)CNC(=O)[C@H](CCC(=O)O)NC(=O)CSCC(=O)NCCN1CCC[C@@H](O)C1=O)[C@@H](C)O)[C@@H](C)O)[C@@H](C)CC)C(C)C)C(N)=O)C(=O)O [Compound 7] | < 0.1 | 94 | 10 to 100 | 29 | > 1 | < 0.1 | 94 | 1 to 10 |  |  |  |  |  |  | 29 | 
CC[C@H](C)[C@H](NC(=O)[C@H](CO)NC(=O)[C@H](Cc1ccc(O)cc1)NC(=O)[C@H](CC(=O)O)NC(=O)[C@H](CO)NC(=O)[C@@H](NC(=O)[C@H](Cc1ccccc1)NC(=O)[C@@H](NC(=O)CNC(=O)[C@H](CCC(=O)O)NC(=O)C(C)(C)C(=O)NC)[C@@H](C)O)[C@@H](C)O)C(=O)N[C@@H](Cc1ccc(O)cc1)C(=O)N[C@@H](CC(C)C)C(=O)N[C@@H](CC(=O)O)C(=O)N[C@@H](CCCCN)C(=O)N[C@@H](CCC(N)=O)C(=O)N[C@@H](C)C(=O)N[C@@H](C)C(=O)NC(C)(C)C(=O)N[C@@H](CCC(=O)O)C(=O)N[C@@H](Cc1ccccc1)C(=O)N[C@H](C(=O)N[C@@H](CC(N)=O)C(=O)N[C@@H](Cc1c[nH]c2ccccc12)C(=O)N[C@@H](CC(C)C)C(=O)N[C@@H](CC(C)C)C(=O)N[C@@H](C)C(=O)NCC(=O)NCC(=O)N1CCC[C@H]1C(=O)N[C@@H](CO)C(=O)N[C@@H](CO)C(=O)NCC(=O)N[C@@H](C)C(=O)N1CCC[C@H]1C(=O)N1CCC[C@H]1C(=O)N1CCC[C@H]1C(=O)N[C@@H](CO)C(=O)N[C@@H](CCCCN)C(N)=O)C(C)C [Compound 142] |  | 101 to 105 |  | 14.2 to 17 |  |  | 101 to 105 |  |  |  | < 0.1 | 100 to 1000 | 0.01 to 1 | < 0.1 | 14.2 to 17 | 10 to 100
